Like-named read-outs stand apart in the source and are kept apart here.
Columns and labels:
5-Lipoxygenase = molecular target: T1, 5-Lipoxygenase (Homo sapiens, UniProt P09917); assay: Inhibition of 5-Lipoxygenase activity; type: biochemical
T1 sequence (P09917 1-674): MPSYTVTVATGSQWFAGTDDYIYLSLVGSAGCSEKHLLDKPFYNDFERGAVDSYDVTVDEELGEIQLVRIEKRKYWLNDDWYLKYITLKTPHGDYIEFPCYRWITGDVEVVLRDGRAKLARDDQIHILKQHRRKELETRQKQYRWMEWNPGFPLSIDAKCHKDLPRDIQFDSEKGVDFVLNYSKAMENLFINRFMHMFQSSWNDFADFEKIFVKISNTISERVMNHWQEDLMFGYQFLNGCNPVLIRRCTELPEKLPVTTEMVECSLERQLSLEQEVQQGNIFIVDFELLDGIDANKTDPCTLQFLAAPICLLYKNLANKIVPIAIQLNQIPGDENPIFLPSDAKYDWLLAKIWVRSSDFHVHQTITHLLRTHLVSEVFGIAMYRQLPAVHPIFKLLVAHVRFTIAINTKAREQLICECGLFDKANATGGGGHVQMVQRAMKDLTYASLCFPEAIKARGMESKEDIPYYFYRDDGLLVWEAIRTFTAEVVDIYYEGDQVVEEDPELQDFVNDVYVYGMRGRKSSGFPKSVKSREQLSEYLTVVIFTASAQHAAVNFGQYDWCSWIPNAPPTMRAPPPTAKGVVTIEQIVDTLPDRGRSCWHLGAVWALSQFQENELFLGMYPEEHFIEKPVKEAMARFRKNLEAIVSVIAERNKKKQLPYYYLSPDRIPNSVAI
Source text: 5-Lipoxygenase has been known to be a key enzyme in the bio-synthesis of leukotrienes, important mediators in inflammatory and allergic processes. […] The experiment was repeated using various concentrations of the compounds.

[1] = tested on: methicillin-resistant Staphylococcus aureus (ATCC33591); assay: Growth inhibition of methicillin-resistant Staphylococcus aureus (ATCC33591); type: cell-based; conditions: Table 5; repeated with various concentrations
Source text: In this example, the inhibition by the aforementioned compounds or extracts on the growth of methicillin-resistant Staphylococcus aureus (ATCC33591) was studied by a method modified from those described in Modugno et al., Antimicrobial Agents and Chemotherapy, 1994, 38: 2362-2368, and Misiek et al., Antimicrobial Agents Chemotherapy, 1973, 3: 40-48.
The above experiments on Staphylococcus aureus and Propionibacterium acnes were repeated using various concentrations of the compounds.

[2] = 5-Lipoxygenase, IC50 (μM), Table 2A
[3] = Table 2A, concentration 10 μM, read-out: % Inhibition
[4] = Table 2A, read-out: 5-Lipoxygenase, IC50
[5] = Table 2B, read-out: 5-Lipoxygenase, IC50

Row | Compound | inhibition at 10 µM (5-Lipoxygenase) | Anti-microbial Activity, effective concentration range, MRSA (μM) [1] | inhibition at 10 µM (5-Lipoxygenase; [3]) | IC50 (5-Lipoxygenase; [4]) | Anti-microbial Activity, effective concentration range, MRSA [1] | other results
1 | CC(=O)O[C@H](CC=C(C)C)C1=CC(=O)c2c(O)ccc(O)c2C1=O [ASK, (R)-1-(5,8-dihydroxy-1,4-dioxo-1,4-dihydronaphthalen-2-yl)-4-methylpent-3-enyl acetate] | 99% | 0.9~3.0 μM |  |  |  | IC50 (5-Lipoxygenase; [2]): 1.46 µM
2 | CC(C)=CC[C@@H](OC(=O)C=C(C)C)C1=CC(=O)c2c(O)ccc(O)c2C1=O [BSK] |  |  | 99% | 1.2 µM | 2.8 µM | 
3 | Cc1cc(C2CCCCC2)n(O)c(=O)c1 [Ciclpirox Olamine, reference compound] |  |  |  |  | 37.3 µM | inhibition at 30 µM (5-Lipoxygenase; Table 2B, concentration 30 μM): 66%; IC50 (5-Lipoxygenase; [5]): 16.9 µM
4 | CC(C)=CCCC1=CC(=O)c2c(O)ccc(O)c2C1=O [DSK, 5,8-dihydroxy-2-(4-methylpent-3-enyl)naphthalene-1,4-dione] | 53% | 7.8~26.0 μM |  |  |  | inhibition at 10 µg/mL (5-Lipoxygenase): 64%; IC50 (5-Lipoxygenase; [2]): 7.01 µM; IC50 (5-Lipoxygenase; 5-Lipoxygenase, IC50, Table 2B): 20.1 µM
5 | CC(C)=CC[C@@H](OC(=O)C(C)C)C1=CC(=O)c2c(O)ccc(O)c2C1=O [ISK, (R)-1-(5,8-dihydroxy-1,4-dioxo-1,4-dihydronaphthalen-2-yl)-4-methylpent-3-enyl isobutyrate] |  |  | 98% | 1.54 µM | 7.7 µM | 
6 | CCC(C)C(=O)O[C@H](CC=C(C)C)C1=CC(=O)c2c(O)ccc(O)c2C1=O (some centres unmarked) [MBSK, 1-(5,8-dihydroxy-1,4-dioxo-1,4-dihydronaphthalen-2-yl)-4-methylpent-3-enyl 2-methylbutanoate] |  |  | 98% | 1.37 µM | 2.7 µM | 
7 | CC(C)=CC[C@@H](O)C1=CC(=O)c2c(O)ccc(O)c2C1=O [SK, (R)-5,8-dihydroxy-2-(1-hydroxy-4-methylpent-3-enyl)naphthalene-1,4-dione] | 101% | 10.4~34.7 μM |  |  |  | IC50 (5-Lipoxygenase): 0.39 µM; inhibition at 1 µM (5-Lipoxygenase): 70%; inhibition at 1 µg/mL (5-Lipoxygenase): 51%; IC50 (5-Lipoxygenase; 5-Lipoxygenase, IC50, Table 2B): 2.93 µM
8 | Gentamicin [reference compound] |  |  |  |  | 2.1 µM | 
9 | epigallocatechin-3 gallate [EGCG, reference compound] |  |  |  |  |  | % Inhibition (5-Lipoxygenase; Table 2B, concentration 100 μM): 58%; IC50 (5-Lipoxygenase; [5]): 87.2 µM
